Strand notation (5' to 3'): a small letter for the sugar, then the base; units joined by * are phosphorothioate-linked, units joined directly phosphodiester-linked; [ ] holds rarer units or linkages, { } end groups; capitals alone tell only the bases. e = 2'-O-(2-methoxyethyl) (MOE); k = constrained ethyl (cEt); [5mC] = 5-methylcytosine; d = 2'-deoxy (DNA)
Tested on: human PKK mRNA
Assay: Antisense inhibition of human PKK mRNA in HepaRG cells, 1,000 nM, MOE/deoxy/cEt oligonucleotides (Example 3)
Format: cell-based
Details: HepaRG cells, 1,000 nM antisense oligonucleotide, Table 29
How it was run: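 HepaRG cells at 20,000 per well electroporated with 1,000 nM 16-mer MOE/cEt/deoxy gapmers (phosphorothioate, 5-methylcytosine). After about 24 h, PKK mRNA measured by qRT-PCR with primer probe set RTS3454, normalized to RIBOGREEN total RNA. Reported as percent inhibition versus untreated cells.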

Row | Substance | % inhibition [%]
1 | 548569 (eA*e[5mC]*kT*d[5mC]*dA*dT*dT*dG*dG*dT*d[5mC]*dT*dA*k[5mC]*kA*eG; antisense) [compound 548569] | 41
2 | 548563 (antisense eA*eA*kA*d[5mC]*d[5mC]*dA*dT*dG*dA*dA*dT*dT*dA*kG*kG*eT) [compound 548563] | 20
3 | 548591 (eG*eT*kA*dA*dG*d[5mC]*d[5mC]*dT*dT*d[5mC]*dA*d[5mC]*dA*kG*kG*eG; antisense) [compound 548591] | 3
4 | 548565 (antisense eG*eG*k[5mC]*dA*dT*dT*dA*dG*dG*dA*dT*dA*dG*kG*k[5mC]*eA) [compound 548565] | 63
5 | 548599 (eT*eG*kG*dG*dT*dT*dG*dG*dA*dG*dG*dA*dG*kT*kG*eG; antisense) [compound 548599] | 19
6 | 548588 (eA*eG*k[5mC]*dT*d[5mC]*dA*d[5mC]*dA*d[5mC]*d[5mC]*d[5mC]*dA*dA*kA*kA*eA; antisense) [compound 548588] | 10
7 | 548561 (antisense eT*eG*kT*dA*dG*dT*dA*dT*d[5mC]*d[5mC]*dA*dG*dA*kG*kT*eA) [compound 548561] | 46

Same assay, conditions: HepaRG cells, electroporation with 1,000 nM antisense oligonucleotide, approx. 24 hours, PKK mRNA by RT-PCR (RTS3454), relative to untreated control cells; Table 25 experiment

Row | Substance | % inhibition [%]
8 | 548225 (eA*eG*kT*d[5mC]*dA*d[5mC]*d[5mC]*dA*dT*dA*dG*dA*d[5mC]*k[5mC]*k[5mC]*eA; antisense) [compound 548225] | 48

Same assay, conditions: HepaRG cells, electroporation with 1,000 nM antisense oligonucleotide, approx. 24 hours, PKK mRNA by RT-PCR (RTS3454), relative to untreated control cells; Table 26 experiment

Row | Substance | % inhibition [%]
9 | 548284 (antisense e[5mC]*e[5mC]*k[5mC]*d[5mC]*d[5mC]*dT*dG*dT*dA*dG*dT*dT*dG*kG*k[5mC]*eT) [compound 548284] | 35
10 | 548291 (e[5mC]*e[5mC]*kT*dG*dT*dT*dA*dG*dA*dG*dT*dT*dG*kG*k[5mC]*e[5mC]; antisense) [compound 548291] | 35
11 | 548231 (eA*eA*kT*dA*d[5mC]*dT*d[5mC]*dA*dT*dT*dG*dT*dT*kG*kT*eG; antisense) [compound 548231] | 11

Same assay, conditions: HepaRG cells, electroporation with 1,000 nM antisense oligonucleotide, approximately 24 hours, primer probe set RTS3454, relative to untreated control cells; experiment of Table 23

Row | Substance | % inhibition [%]
12 | 547924 (eG*eT*k[5mC]*d[5mC]*dG*dA*d[5mC]*dA*d[5mC]*dA*d[5mC]*dA*dA*kA*kA*eG; antisense) [compound 547924] | 53
13 | 547989 (antisense e[5mC]*eT*kG*dA*d[5mC]*dA*dG*d[5mC]*dG*dA*dA*dT*d[5mC]*kA*kT*e[5mC]) [compound 547989] | 66

Same assay, conditions: HepaRG cells, electroporation with 1,000 nM antisense oligonucleotide, approximately 24 hours, primer probe set RTS3454, relative to untreated control cells; experiment of Table 24

Row | Substance | % inhibition [%]
14 | 548001 (antisense eA*e[5mC]*k[5mC]*dA*dG*dA*dG*d[5mC]*dT*d[5mC]*d[5mC]*d[5mC]*dT*kT*kG*eT) [compound 548001] | 64
15 | 548041 (eT*eG*kT*dG*dA*dG*dA*dA*dA*dG*dG*dT*dG*kT*kA*eT; antisense) [compound 548041] | 64

Same assay, conditions: PKK mRNA, HepaRG cells, 1,000 nM antisense oligonucleotide; Table 31

Row | Substance | % inhibition [%]
16 | 548654 (antisense eA*e[5mC]*k[5mC]*dA*dT*dT*d[5mC]*d[5mC]*dT*dG*dA*d[5mC]*d[5mC]*kA*kT*eG) [compound 548654] | 34
17 | 548652 (antisense e[5mC]*e[5mC]*kA*d[5mC]*dG*dA*dT*dG*d[5mC]*dT*d[5mC]*dT*dG*kG*k[5mC]*e[5mC]) [compound 548652] | 65
18 | 548678 (antisense eG*eA*kG*dT*dT*dA*d[5mC]*d[5mC]*dT*dT*dA*d[5mC]*dA*kA*kG*e[5mC]) [compound 548678] | 22
19 | 548639 (antisense eT*eG*kG*dG*dA*dA*dG*dA*dA*dA*d[5mC]*dT*dA*kG*k[5mC]*eA) [compound 548639] | 10

Same assay, conditions: Table 19; HepaRG cells, electroporation with 1,000 nM antisense oligonucleotide, approximately 24 hours; PKK mRNA by RT-PCR (RTS3454), relative to untreated control cells

Row | Substance | % inhibition [%]
20 | 548144 (eA*eT*kG*d[5mC]*d[5mC]*dA*d[5mC]*dT*d[5mC]*dT*d[5mC]*d[5mC]*dA*kT*kG*e[5mC]; antisense) [compound 548144] | 52
21 | 548103 (antisense eT*eG*kT*dA*d[5mC]*dT*d[5mC]*dA*dG*d[5mC]*dG*dA*d[5mC]*kT*kT*eT) [compound 548103] | 66
22 | 548107 (antisense eT*e[5mC]*k[5mC]*dA*dT*dG*dT*dA*d[5mC]*dT*d[5mC]*dA*dG*k[5mC]*kG*eA) [compound 548107] | 76

Same assay, conditions: Table 20; HepaRG cells, electroporation with 1,000 nM antisense oligonucleotide, approximately 24 hours; PKK mRNA by RT-PCR (RTS3454), relative to untreated control cells

Row | Substance | % inhibition [%]
23 | 547905 (eT*eA*k[5mC]*dT*d[5mC]*dA*dG*d[5mC]*dA*d[5mC]*d[5mC]*dT*dT*kT*kA*eT; antisense) [compound 547905] | 20
24 | 547900 (eT*eG*kT*dA*d[5mC]*dT*dT*dT*dA*dA*dT*dA*dG*kG*k[5mC]*eA; antisense) [compound 547900] | 93
25 | 547890 (eT*eT*kG*dT*dT*d[5mC]*d[5mC]*dG*dG*dT*dA*d[5mC]*dT*k[5mC]*kT*eG; antisense) [compound 547890] | 97

Same assay, conditions: Table 21 experiment; HepaRG cells, electroporation with 1,000 nM antisense oligonucleotide, approx. 24 hours; PKK mRNA by RT-PCR (RTS3454), relative to untreated control cells

Row | Substance | % inhibition [%]
26 | 547821 (e[5mC]*eA*kA*dA*d[5mC]*d[5mC]*dT*dT*dT*dT*d[5mC]*dT*d[5mC]*k[5mC]*kA*eT; antisense) [compound 547821] | 44
27 | 547767 (antisense eT*eG*kG*dA*dG*dG*dT*dG*dA*dG*dT*d[5mC]*dT*k[5mC]*kT*eT) [compound 547767] | 74
28 | 547783 (antisense e[5mC]*eA*k[5mC]*dA*dA*dT*dT*dG*d[5mC]*dT*dT*d[5mC]*dT*kT*kG*eG) [compound 547783] | 48
29 | 547791 (antisense eA*e[5mC]*kT*dG*dT*dA*dG*d[5mC]*dA*dA*dA*d[5mC]*dA*kA*kG*eG) [compound 547791] | 49
30 | 547794 (antisense eT*e[5mC]*kA*dT*dA*dG*dA*dG*dT*dT*dG*dA*dG*kT*k[5mC]*eA) [compound 547794] | 49

Same assay, conditions: Table 22 experiment; HepaRG cells, electroporation with 1,000 nM antisense oligonucleotide, approx. 24 hours; PKK mRNA by RT-PCR (RTS3454), relative to untreated control cells

Row | Substance | % inhibition [%]
31 | 547905 (eT*eA*k[5mC]*dT*d[5mC]*dA*dG*d[5mC]*dA*d[5mC]*d[5mC]*dT*dT*kT*kA*eT; antisense) [compound 547905] | 59
32 | 547900 (eT*eG*kT*dA*d[5mC]*dT*dT*dT*dA*dA*dT*dA*dG*kG*k[5mC]*eA; antisense) [compound 547900] | 68
33 | 547890 (eT*eT*kG*dT*dT*d[5mC]*d[5mC]*dG*dG*dT*dA*d[5mC]*dT*k[5mC]*kT*eG; antisense) [compound 547890] | 90

Same assay, conditions: Table 27; HepaRG cells, 1,000 nM antisense oligonucleotide; human PKK mRNA

Row | Substance | % inhibition [%]
34 | 548376 (eG*e[5mC]*k[5mC]*dT*dT*dT*dG*dA*d[5mC]*d[5mC]*dT*dT*dT*k[5mC]*kG*e[5mC]; antisense) [compound 548376] | 65
35 | 548337 (antisense eT*eA*k[5mC]*d[5mC]*dG*d[5mC]*dT*dG*dG*dG*dT*dG*d[5mC]*kG*kG*eT) [compound 548337] | 10
36 | 548374 (eG*e[5mC]*kA*d[5mC]*d[5mC]*d[5mC]*dT*dT*dT*dT*d[5mC]*dA*dT*kT*kG*eA; antisense) [compound 548374] | 41

Same assay, conditions: Table 28; HepaRG cells, 1,000 nM antisense oligonucleotide; human PKK mRNA

Row | Substance | % inhibition [%]
37 | 548484 (e[5mC]*e[5mC]*k[5mC]*d[5mC]*dG*dG*dA*dG*d[5mC]*dA*d[5mC]*d[5mC]*dT*kT*k[5mC]*eA; antisense) [compound 548484] | 41
38 | 548529 (antisense eG*e[5mC]*kG*dA*dT*dT*d[5mC]*d[5mC]*dT*dT*dG*d[5mC]*d[5mC]*kT*k[5mC]*eT) [compound 548529] | 56

Same assay, conditions: Table 30; human PKK mRNA, HepaRG cells, 1,000 nM antisense oligonucleotide

Row | Substance | % inhibition [%]
39 | 548458 (eA*e[5mC]*k[5mC]*dT*dA*dT*dA*dA*d[5mC]*dT*dA*dT*dA*kA*k[5mC]*eA; antisense) [compound 548458] | 0
40 | 548453 (eT*eA*k[5mC]*d[5mC]*dT*dA*dT*dA*dA*d[5mC]*dA*dG*dT*kA*kT*e[5mC]; antisense) [compound 548453] | 12
41 | 548389 (eT*eT*kG*dA*dG*dG*dA*dA*dA*dG*dA*d[5mC]*d[5mC]*kT*kG*e[5mC]; antisense) [compound 548389] | 11
42 | 548449 (eA*eT*k[5mC]*dA*d[5mC]*dT*dG*dT*d[5mC]*d[5mC]*dT*dA*dT*kG*kT*e[5mC]; antisense) [compound 548449] | 62
43 | 548416 (antisense e[5mC]*eT*kA*dT*dA*dA*d[5mC]*dT*d[5mC]*dT*dA*dA*d[5mC]*kA*kG*eT) [compound 548416] | 9
